# Laboratory results: patent US20250066371A1, “FLUOROALKOXYALKYLENE-DIHYDROIMIDAZO[5,1-D]TETRAZINONE COMPOUNDS AND RELATED COMPOUNDS AND THEIR USE IN TREATING MEDICAL CONDITIONS” (priority 2023, published 2025)
# Columns and labels:
# rats = test: Animal model toxicity testing in rats; conditions: tested doses exceeded those at which A1 caused 100% mortality
# [1] = system: LN229 gliobastoma cells MGMT+/MMR+; test: Anti-cancer assay, isogenic LN229 cells, nuclei count (Example 43); assay type: cell-based; conditions: Homo sapiens, LN-229; LN229 MGMT+/MMR+; 120 hours; read-out: MGMT+ MMR+ Activity
# From the text: Cytotoxicity of the compounds may be measured in short-term cell viability assays against four isogenic LN229 glioblastoma cell lines engineered to be proficient or deficient in MGMT and/or MMR activity by using short hairpin RNAs (shRNAs) targeting MSH2. This approach allows for determination of the relationship between MGMT status, MMR status, and compound activity. LN229 cells are maintained in Dulbecco's Modified Eagle Medium (DMEM) supplemented with 10% fetal bovine serum, 1% Penicillin/Streptomycin, and 0.1% Fungin. DAY 0: Cells are plated into sterile 96-well plates (Corning Costar 96-well) at a concentration of 500 cells/well using a Multichannel pipettor. Then, assay plates are incubated overnight in a 37° C. 5% CO2 incubator. DAY 1: Compounds are prepared as 50 mM stocks in dimethyl sulfoxide (DMSO) and stored protected from light at room temperature (RT) until use. Prior to compound addition, a two-fold serial dilution of compound stock solutions is performed in DMSO from 30 mM to 0.117 mM in a 96-well Master plate. Vehicle control wells contain DMSO. 97 μL of media is added to each well of a new 96-well plate (Daughter plate) and 3 μL of drug solution from Master plate is added to corresponding wells in the Daughter plate resulting in a 3× plate. Three replicate dilution curves of each compound are run on each assay plate. The final concentration of compounds ranges from 300 μM to 1.171 μM (9-point, 2-fold dilution dose response curve), and the final DMSO concentration is 1%.
# (§1) Assay plates are incubated for 120 hours at 37° C. in a humidified 5% CO2 incubator. DAY 5: Following incubation, cells are fixed with 4% paraformaldehyde and stained with Hoechst dye for nuclei visualization. Fixation, staining and washing is performed by using a Thermo Scientific Multidrop Combi. Images are acquired on a BioTek Cytation 5 Cell Imaging Multimode Reader and quantified using Cell Profiler image analysis software. Raw cell count data for test compounds are normalized to percent viability relative to the DMSO vehicle control.
# Isogenic LN229 gliobastoma cells were maintained in Dulbecco's Modified Eagle Medium (DMEM) supplemented with 10% fetal bovine serum, 1% Penicillin/Streptomycin, and 0.1% Fungin. DAY 0: Cells were plated into sterile 96-well plates (Corning Costar 96-well) at a concentration of 500 cells/well using a Multichannel pipettor. Then, assay plates were incubated overnight in a 37° C. 5% CO2 incubator. DAY 1: Compounds were prepared as 50 mM stocks in dimethyl sulfoxide (DMSO) and stored protected from light at room temperature (RT) until use. Prior to compound addition, a two-fold serial dilution of compound stock solutions was performed in DMSO from 30 mM to 0.117 mM in a 96-well Master plate. Vehicle control wells contained DMSO. 97 μL of media was added to each well of a new 96-well plate (Daughter plate) and 3 μL of drug solution from Master plate was added to corresponding wells in the Daughter plate resulting in a 3× plate. Three replicate dilution curves of each compound were run on each assay plate. The final concentration of compounds ranged from 300 μM to 1.171 μM (9-point, 2-fold dilution dose response curve), and the final DMSO concentration was 1%.
# as §1, with “plates were” for “plates are”, “cells were” for “cells are”, “washing was” for “washing is”, “Images were” for “Images are”, “compounds were” for “compounds are”
# dogs = test: Animal model toxicity testing in dogs; conditions: tested doses exceeded those at which A1 caused 100% mortality
# SaOS2 = test: Cell panel nuclear dye assay; assay type: cell-based; conditions: Homo sapiens, SAOS-2, 120 h, Osteosarcoma, 5-day incubation
# Description: (§2) Cells were grown in RPMI1640, 10% FBS, 2 mM L-alanyl-L-glutamine, 1 mM Na pyruvate, or a special medium. Cells were seeded into 384-well plates and incubated in a humidified atmosphere of 5% CO2 at 37° C. Compound was added the day following cell seeding. At the same time, a time zero untreated cell plate was generated. After a 5-day incubation period, cells were fixed and stained to allow fluorescence imaging of nuclei.
# (§3) Compounds were serially diluted in 2-fold steps from the highest test concentration specified, and assayed over 10 concentrations with a maximum assay concentration of 0.1% DMSO. Automated fluorescence microscopy was carried out using a Molecular Devices ImageXpress Micro XL high-content imager, and images were collected with a 4× objective. 16-bit TIFF images were acquired and analyzed with MetaXpress 5.1.0.41 software.
# (§4) Cell proliferation was measured by the fluorescence intensity of an incorporated nuclear dye. The output is referred to as the relative cell count, where the measured nuclear intensity is transformed to percent of control (POC) using the following formula: […]
# (§5) Cell count IC50 is the test compound concentration at 50% of maximal possible response. EC50 is the test compound concentration at the curve inflection point or half the effective response (parameter C of the fitted curve solution). GI50 is the concentration needed to reduce the observed growth by half (midway between the curve maximum and the time zero value). Activity area is an estimate of the integrated area above the curve. Activity area values range from 0-10, where a value of zero indicates no inhibition of proliferation at all concentrations, and a value of 10 indicates complete inhibition of proliferation at all concentrations. In rare instances, values <0 or >10 may be observed. In these instances, values <0 should be considered as equivalent to 0, whereas values >10 should be considered equivalent to 10.
# CHP-212 = test: Cell panel nuclear dye assay; assay type: cell-based; conditions: Homo sapiens, 120 h, Neuroblastoma, 5-day incubation
# Description: as §2, §3, §4, §5
# SK-N-AS = test: Cell panel nuclear dye assay; assay type: cell-based; conditions: Homo sapiens, 120 h, Neuroblastoma, 5-day incubation
# Description: as §2, §3, §4, §5
# ST486 = test: Cell panel nuclear dye assay; assay type: cell-based; conditions: Homo sapiens, 120 h, Lymphoma (Burkitt's), 5-day incubation
# Description: as §2, §3, §4, §5
# SH-4 = test: Cell panel nuclear dye assay; assay type: cell-based; conditions: Homo sapiens, 120 h, Melanoma, 5-day incubation
# Description: as §2, §3, §4, §5
# [2] = system: LN229 gliobastoma cells MGMT−/MMR+; test: Anti-cancer assay, isogenic LN229 cells, nuclei count (Examples 43, 46); assay type: cell-based; conditions: Homo sapiens, LN-229; MGMT negative/MMR positive; Example 46, maximum concentration 200 μM; read-out: IC50 for causing the death of LN229 cells
smiles,measurement,setting,value
"NC(=O)c1ncn2c(=O)n(CCOC(F)(F)F)nnc12 [Compound I-1, 4-Oxo-3-(2-(trifluoromethoxy)ethyl)-3,4-dihydroimidazo[5,1-d][1,2,3,5]tetrazine-8-carboxamide]",adverse clinical signs,rats,no adverse clinical signs were observed
same,IC50,[1],> 100 µM
same,adverse clinical signs,dogs,no adverse clinical signs were observed
same,EC50,SaOS2,≤ 30 µM
same,IC50,SaOS2,≤ 30 µM
same,EC50,CHP-212,≤ 30 µM
same,IC50,CHP-212,≤ 30 µM
same,EC50,SK-N-AS,> 150 µM
same,IC50,SK-N-AS,> 150 µM
same,EC50,ST486,≤ 30 µM
same,IC50,ST486,≤ 30 µM
same,EC50,SH-4,30 to 70 µM
same,IC50,SH-4,30 to 70 µM
same,IC50,[2],< 20 µM
